The record followed here is patent publication US12343428B2, “Compositions and methods for cancer treatment” (University of Virginia Patent Foundation, priority 2017, dated 2025).

Experiment [1] has as its system UNC-10 HNSCC cells. Kind of experiment: MTS cell viability assay, UNC-10 HNSCC cells. Format: cell-based, human. Here is the method: (§1) To evaluate cell viability in HNSCC cell lines after drug exposure, 5,000 cells were plated in 96-well plates. After 16-30 hours, cells were exposed to each drug alone or in combination, and viability was measured every 24 hours for a total of 48 hours. Viability was assayed using a […] 96® brand AQueous Non-Radioactive Cell Proliferation MTS Assay (Promega Corporation) according to manufacturer's instructions. A minimum of three biologically independent experiments were performed. Results were normalized to the respective negative controls of each experiment.
(§2) To evaluate cell viability of HNSCC cell lines after exposure to various amounts of Erlotinib, 5,000 UNC-10 or SCC-25 cells were plated in 96-well plates. After 16-30 hours, cells were exposed to each Erlotinib at 0 μM, 0.5 μM, 1 μM, 5 μM, 10 μM, and 25 μM, and viability was measured at 24 and 48 hours. Viability was assayed using MTS assay (Promega […] 96® AQueous Non-Radioactive Cell Proliferation Assay) according to manufacturer instructions. A minimum of three biologically independent experiments were performed. Results were normalized to the respective negative controls of each experiment.
(§3) To evaluate cell viability in HNSCC cell lines after exposure to CNLs, similar experiments were performed with five different concentrations of CNLs alone: 0 μM, 2.5 μM, 5 μM, 10 μM, 25 μM. 5,000 UNC-10 or SCC-25 cells were plated in 96-well plates. After 16-30 hours, cells were exposed to each drug alone or in combination, and viability was measured every 24 hours for a total of 48 hours. Viability was assayed using MTS assay (Promega […] 96® AQueous Non-Radioactive Cell Proliferation Assay) according to manufacturer instructions. A minimum of three biologically independent experiments were performed.
(§4) To evaluate cell viability in HNSCC cell lines after exposure to CNLs plus an EGFR inhibitor, 5,000 cells were plated in 96-well plates. After 16-30 hours, cells were exposed to six different concentrations of Erlotinib (0 μM, 0.5 μM, 1 μM, 5 μM, 10 μM, & 25 μM) combined with five different concentrations of CNLs (0 μM, 2.5 μM, 5 μM, 10 μM, & 25 μM), and viability was measured at 24 hours and 48 hours. Viability was assayed using MTS assay (Promega […] 96® AQueous Non-Radioactive Cell Proliferation Assay) according to manufacturer instructions. A minimum of three biologically independent experiments were performed. Results were normalized to the respective negative controls of each experiment.

In a further experiment the test system is SCC-25 HNSCC cells. Put plainly: MTS cell viability assay, SCC-25 HNSCC cells. The class given is cell-based, human. The note with it: for viability at 25 µM: Homo sapiens, 48 hours. Here is the method:
as §1, §2, §3, §4
A general note: Tetrazolium dyes change colour on reduction, which living cells bring about.

The subject of another experiment is UNC-10 cells. Put plainly: Flow cytometry viability dye assay, UNC-10 cells. The class given is cell-based. The note with it: Homo sapiens, 48 hours, 25 μM Erlotinib. As to the method: (§5) To evaluate cell death in HNSCC cell lines exposed to CNL and/or Erlotinib or Gefitinib, a flow cytometry assay was performed. Cells were plated in 24-well plates for 16-30 hours before being pre-treated for one hour with Erlotinib or Gefitinib (0 μM, 10 μM, 25 μM) and then with CNL (0 μM, 2.5 μM, 5 μM). After 24 or 48 hours, cells were stained with a Fixable Viability Dye EFLUOR™ 780 brand a viability dye (ThermoFischer Scientific Inc.)
(§6) according to the manufacturer's recommendations. The use of this dye allowed us to differentiate between two cell populations: dead or live cells. Flow cytometry controls (alive/stained, alive/non-stained, & dead/stained) were used to allow for a more rigorous discrimination between populations. Results were normalized to the respective negative controls of each experiment. Data analysis was performed using FlowJo Software.
(§7) In order to evaluate cell death in HNSCC cell lines exposed to CNL and/or Erlotinib or Gefitinib, flow cytometry assays were also performed. Cells were plated in 24-well plates for 16-30 hours before being pre-treated for one hour with Erlotinib or Gefitinib (0 μM, 10 μM, 25 μM) and then with CNL (0 μM, 2.5 μM, 5 μM). After 24 or 48 hours, cells were stained with a viability dye (Fixable Viability Dye EFLUOR™ 780, ThermoFischer Scientific) according to the manufacturer recommendations. […]
On the technique in general: In flow cytometry, cells or beads pass a laser one at a time.

A further experiment deals with SCC-25 cells. Kind of experiment: Flow cytometry viability dye assay, SCC-25 cells. Particulars: Homo sapiens, 48 hours, 25 μM Erlotinib. Format: cell-based. As to the method:
as §5, §6, §7

A further experiment deals with UNC-7 HNSCC cells. Put plainly: LC-MS/MS sphingolipid profile, UNC-7. The class given is cell-based, human. The note with it: 25 μM Erlotinib, 0, 3, 6 hours. Here is the method: (§8) To determine Erlotinib's effect on the sphingolipid profile in HNSCC, 500,000 cells of two different cell lines (UNC-7 & UNC-10) were plated and grown in cell culture. When these cells reached about 70% confluence, they were treated with 25 μM Erlotinib. After addition of the Erlotinib, cells were collected immediately, three hours later, or six hours later. Collected cells were lysed using 0.1× PBS and protein quantification was determined using a Pierce BCA Protein Assay (Thermo Fisher Scientific) according to the manufacturer's instructions. Cell lysates containing 250 μg of protein were then used for lipid extractions. […] The sphingolipids were then analyzed using LC-MS/MS.

Experiment [2] relates to UNC-10 HNSCC cells. Put plainly: LC-MS/MS sphingolipid profile, UNC-10. Format: cell-based, human. Particulars: 25 μM Erlotinib, 0, 3, 6 hours. Here is the method: as §8
The subject of experiment [3] is eight different HNSCC cell lines. Put plainly: MTS cell viability assays in eight HNSCC cell lines. The class given is cell-based, human. Particulars: any of the cell lines, concentrations and time points. Here is the method: Drugs concentrations. […] For synergistic experiments: abiraterone acetate (Selleckchem, Houston, Texas, United States of America) was used at 0.5 μM, 1 μM, 5 μM, 10 μM, 20 μM; enzalutamide (Selleckchem) at 1 μM, 5 μM, 10 μM, 20 μM, 30 μM; and CNL at 5 μM, 10 μM, 20 μM, and 30 μM. During synergy studies, each concentration of either abiraterone acetate or enzalutamide was combined with either Ghost (negative) control (nanoliposomes without the C6 ceramide—active agent) or each concentration of CNL. Respective negative controls for abiraterone acetate and enzalutamide were also used. Synergy experiments were performed in LNCaP and C4-2 cells. For synergistic studies using the HNSCC cell lines, all eight cell lines were pre-treated for one hour with either Erlotinib (Selleckchem) or Gefitinib (Sigma-Aldrich Corporation, St. Louis, Missouri, United States of America) before adding CNL. Six different concentrations of Erlotinib and Gefitinib (0 μM, 0.5 μM, 1 μM, 5 μM, 10 μM, and 25 μM) were tested against five different CNL concentrations (0 μM, 2.5 μM, 5 μM, 10 μM, and 25 μM). […]
To evaluate cell viability in HNSCC cell lines after drug exposure, 5,000 cells were plated in 96-well plates. After 16-30 hours, cells were exposed to each drug alone or in combination, and viability was measured every 24 hours for a total of 48 hours. […]

Another experiment relates to LNCaP and C4-2 cells. Put plainly: Synergy studies of CNL with abiraterone acetate or enzalutamide (MTS, isobolograms). Particulars: two AR positive cell lines; drug alone. Format: cell-based, human. Here is the method: Viability was assayed using MTS assay (Promega […] 96® AQueous Non-Radioactive Cell Proliferation Assay) according to manufacturer instructions. […] Results were normalized to the respective negative controls of each experiment.

Another experiment concerns LNCaP cells. Put plainly: LC-MS/MS lipid levels in LNCaP cells. The class given is cell-based, human. Particulars: 10 μM abiraterone acetate alone. Here is the method: Cells were plated in 6-well plates for 48 hours before being exposed to CNL 10 μM and/or Abiraterone Acetate 10 μM, as well as respective controls (Ghost liposome and Ethanol respectively). Cells were collected after 1 hour, 4 hours, 12 hours, 24 hours, and 48 hours of exposure. Cells were lysed with 0.1× PBS and protein quantification was determined using a DC™ brand Protein Assay (Bio-Rad Laboratories, Inc., Hercules, California, United States of America). The Metabolomics core at University of Virginia performed lipid extraction, LC-MS/MS injections, and data analysis.

One may read the viability as a read-out of living cells in per cent, often relative to untreated cells. For the compound `C#Cc1cccc(Nc2ncnc3cc(OCCOC)c(OCCOC)cc23)c1` [Erlotinib], the “effect on cell viability” value with UNC-10 HNSCC cells [1] (Erlotinib alone 0.5-25 μM, 24 or 48 hours) is recorded as “little effect”; in the experiment on SCC-25 HNSCC cells (Erlotinib alone, higher concentrations, 24 or 48 hours), “not statistically significant”. Also, the viability at 25 µM with UNC-10 HNSCC cells [1] (Homo sapiens, 48 hours, 25 μM Erlotinib) was determined as 90%; in the experiment with SCC-25 HNSCC cells (25 μM Erlotinib), 89%; in the experiment on UNC-10 cells, 91%; in the experiment with SCC-25 cells, 89%. Besides, the sphingolipid levels result in the experiment on UNC-7 HNSCC cells and in the experiment with UNC-10 HNSCC cells [2] was “able to alter sphingolipid levels” in each case. Further, the “effect of Erlotinib alone on cell viability” value in [3] is recorded as “failing to produce any meaningful effects”.

In the case of `CC(=O)O[C@H]1CC[C@@]2(C)C(=CC[C@@H]3[C@@H]2CC[C@]2(C)C(c4cccnc4)=CC[C@@H]32)C1` [abiraterone acetate], the “reduction of viability as single treatment” value with LNCaP and C4-2 cells is listed as “effective in reducing the viabilities of PCa cells”. In addition, in the experiment on LNCaP cells, the C6 ceramide levels entry is “not changed” and the total ceramide levels result was “not changed”.

As to `COc1cc2ncnc(Nc3ccc(F)c(Cl)c3)c2cc1OCCCN1CCOCC1` [Gefitinib], the effect on viability entry in the experiment with UNC-10 HNSCC cells [1] (Gefitinib at 5 μM or less, 24 hours or 48 hours) is “little effect”; with UNC-10 HNSCC cells [1] (Gefitinib higher concentrations (10, 25 μM), particularly at 24 hours) it was “reduced viability”. Further, in the experiment on UNC-10 HNSCC cells [1] (Homo sapiens, 48 hours, 5 μM Gefitinib), the viability at 5 µM is 97%. For the same compound, the “effect on viability compared with UNC-10” value in the experiment with SCC-25 HNSCC cells (Gefitinib alone, 24 hours and 48 hours) was “less striking”. In addition, in the experiment on SCC-25 HNSCC cells (25 μM Gefitinib), the viability at 25 µM is 81%.

As for `CNC(=O)c1ccc(N2C(=S)N(c3ccc(C#N)c(C(F)(F)F)c3)C(=O)C2(C)C)cc1F` [Enzalutamide], in the experiment with LNCaP and C4-2 cells, the “reduction of viability as single treatment” value is given as “not as effective as a single treatment”.
